Molecular target: T1, SARM1 SAM-TIR (Homo sapiens, UniProt Q6SZW1)
T1 construct: This assay makes use of a fragment of the SARM1 molecule encompassing the SAM and TIR domains; made in house; host or cells: NRK1-HEK293T cells (transient transfection; clarified sonicated lysate used without purification)
T1 sequence (Q6SZW1 409-724 limits assumed): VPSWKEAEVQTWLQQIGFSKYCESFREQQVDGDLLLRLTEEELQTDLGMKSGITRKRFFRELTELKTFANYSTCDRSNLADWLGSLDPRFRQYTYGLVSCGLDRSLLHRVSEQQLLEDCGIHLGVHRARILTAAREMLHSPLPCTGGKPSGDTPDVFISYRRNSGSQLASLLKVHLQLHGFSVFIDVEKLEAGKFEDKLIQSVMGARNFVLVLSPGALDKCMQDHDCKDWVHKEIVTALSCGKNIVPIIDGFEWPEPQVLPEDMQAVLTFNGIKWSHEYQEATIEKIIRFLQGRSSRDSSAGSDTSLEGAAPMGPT
Test: SAM-TIR SARM1 IC50 assay (NADase activity, NAD+ cleavage)
Type: biochemical
Settings: SAM-TIR lysate 5 μg/mL, 2 h pre-incubation, 5 μM NAD+, RapidFire MS readout
Description: This Example describes an assay of SAM-TIR NADase activity and use of this assay to measure the efficacy of compounds of Formula I to block SARM1 mediated NAD+ cleavage. This assay is optimized in such a way as to characterize the efficacy of the compounds in Formula I to inhibit SARM1 activity and to calculate an IC50 value for each compound. This assay makes use of a fragment of the SARM1 molecule encompassing the SAM and TIR domains.
NRK1-HEK293T cells refers to a cell line that has been stably e transfected with an FCIV expression vector that expresses human Nicotinamide Riboside Kinase 1 (NRK1), an enzyme that converts the NAD+ biosynthetic precursor nicotinamide riboside (NR) to NMN, the immediate precursor of NAD+. When provided with NR this cell line augments intracellular NAD+ levels and maintains cell viability, when expressing SARM1 SAM-TIR. FIG. 2 illustrates that a NRK1-HEK293T stable line with NR supplementation maintains higher NAD+ levels upon SARM1-TIR expression. Data was generated from three independent NAD+ measurements from three independent transfection experiments, and normalized to data from a non-transfected experiment run concurrently. Data are presented as mean±SEM; Error bars: SEM; ***P<0.001 two tailed student's t-test.
NRK1-HEK293T cells were seeded onto 150 cm^2 plates at 20×10^6 cells per plate. The next day, the cells were transfected with 15 μg FCIV-SST (SAM-TIR expression plasmid, SEQ ID NO: 1) using X-[…]™ 9 DNA Transfection Reagent (Roche product #06365787001).
The cultures were supplemented with 1 mM NR at time of transfection to minimize toxicity from SAM-TIR overexpression. Forty-eight hours after transfection, cells were harvested, pelleted by centrifugation at 1,000 rpm (Sorvall ST 16R centrifuge, Thermo Fisher), and washed once with cold PBS (0.01 M phosphate buffered saline NaCl 0.138 M; KCl 0.0027 M; pH 7.4). The cells were resuspended in PBS with protease inhibitors (cOmplete™ protease inhibitor cocktail, Roche product #11873580001) and cell lysates were prepared by sonication (Branson Sonifer 450, output=3, 20 episodes of stroke). The lysates were centrifuged (12,000×g for 10 min at 4° C.) to remove cell debris and the supernatants (containing SARM1 SAM-TIR protein) were stored at −80° C. for later use in the in vitro SARM1 SAM-TIR NADase assay (see below). Protein concentration was determined by the Bicinchoninic (BCA) method and used to normalize lysate concentrations.
The enzymatic assay was performed in a 384-well polypropylene plate in Dulbecco's PBS buffer in a final assay volume of 20 μL. SAM-TIR lysate with a final concentration of 5 μg/mL was pre-incubated with the respective compound at 1% DMSO final assay concentration over 2 h at room temperature. The reaction was initiated by addition of 5 μM final assay concentration of NAD+ as substrate. After a 2 hr room temperature incubation, the reaction was terminated with 40 μL of stop solution of 7.5% trichloroactetic acid in acetonitrile. The NAD+ and ADPR concentrations were analyzed by a RapidFire High Throughput Mass Spectrometry System (Agilent Technologies, Santa Clara, CA) using an API4000 triple quadrupole mass spectrometer (AB Sciex Framingham, MA).

First: COCCn1cc(Br)c2ccncc21 [Example 12]
Second: COCCCn1cc(Br)c2ccncc21 [Example 10]
The IC50 of the first is lower: 30 to 50 µM for the first, greater than 50 µM for the second.

First: CCOC(=O)c1[nH]c2cnccc2c1Br [Example 38]
Second: Brc1c[nH]c2cnccc12 [Example 7]
The IC50 of the first is higher: greater than 50 µM for the first, less than 10 µM for the second. The second is the more potent here.

First: Brc1cccc2nncn12 [Example 3]
Second: Brc1cccc2[nH]ncc12 [Example 5]
The IC50 of the first is higher: greater than 50 µM for the first, 10 to 30 µM for the second.

First: CC(C)n1cc(Br)c2ccncc21 [Example 13]
Second: Cn1cc(Br)c2ccncc21 [Example 16]
The IC50 of the first is higher: 30 to 50 µM for the first, less than 10 µM for the second. The second is the more potent here.

`c1cc2ccsc2cn1` [Example 33] and `Brc1csc2cnccc12` [Example 30] cannot be ordered by IC50: less than 10 µM for the first, less than 10 µM for the second.

Going from `Clc1nccc2c(Br)c[nH]c12` [Example 6] to `Brc1c[nH]c2nnccc12` [Example 44], the IC50 rises from less than 10 µM to greater than 50 µM. The first is the more potent here.

`Clc1c[nH]c2cnccc12` [Example 9] and `Ic1c[nH]c2cnccc12` [Example 4] cannot be ordered by IC50: less than 10 µM for the first, less than 10 µM for the second.

Compared with `Oc1nnc2cnccn12` [Example 27], `Cn1cnc2cnccc21` [Example 28] is lower in IC50: greater than 50 µM for the first, less than 10 µM for the second.

First: Ic1c[nH]c2nnccc12 [Example 42]
Second: Brc1n[nH]c2cnccc12 [Example 31]
The IC50 of the first is higher: greater than 50 µM for the first, 10 to 30 µM for the second. The second is the more potent here.

Compared with `NC(=O)Cn1cc(Br)c2ccncc21` [Example 11], `CCn1cc(I)c2ccncc21` [Example 14] is lower in IC50: greater than 50 µM for the first, less than 10 µM for the second.

`Brc1csc2cnncc12` [Example 43] and `Ic1csc2cnncc12` [Example 41] cannot be ordered by IC50: less than 10 µM for the first, less than 10 µM for the second.

Compared with `Cn1cc(I)c2ccncc21` [Example 15], `N#Cc1cc2ccncc2[nH]1` [Example 37] is higher in IC50: less than 10 µM for the first, greater than 50 µM for the second. The first is the more potent here.

First: O=S1(=O)C=C(Br)c2ccncc21 [Example 40]
Second: Brc1cncc2[nH]ncc12 [Example 32]
The IC50 of the first is higher: 30 to 50 µM for the first, less than 10 µM for the second.

`Cc1ccc2nc[nH]c2c1Br` [Example 29] gave an IC50 of 30 to 50 µM.

System: mouse dorsal root ganglion (DRG) neurons
Test: Axon degeneration assay in mouse DRG drop culture
Type: cell-based
Settings: DRG neuron, protection of axon fragmentation, axonal transection or chemotoxic stimuli
Description: This Example illustrates an in vitro axon degeneration assay used to characterize compounds of Formula I. This assay is used to test the efficacy of the compounds of Formula I to prevent axonal degeneration in a mouse dorsal root ganglion (DRG) drop culture.
Mouse DRG Drop culture: Mouse dorsal root ganglion neurons (DRGs) were dissected out of E12.5 CD1 mice (50 ganglion per embryo) and incubated with 0.5% Trypsin solution containing 0.02% EDTA (Gibco) at 37° C. for 15 min. The cells were then triturated by gentle pipetting and washed 3 times with DRG growth medium (Neurobasal medium (Gibco) containing 2% B27 (Invitrogen), 100 ng/ml 2.5S NGF (Harland Bioproducts), 1 mM 5-fluoro-2′ deoxyuridine (Sigma), penicillin, and streptomycin). Cells were suspended in the DRG growth medium. DRG drop cultures were created by spotting 5000 cells/well into the center of each well of a 96-well tissue culture plate coated with poly-D-Lysine (0.1 mg/ml; Sigma) and laminin ([…]; Invitrogen). Cells were allowed to adhere to the plates in a humidified tissue culture incubator (5% CO2) for 15 min and then DRG growth medium was gently added ([…]).
Axon degeneration assay: Axonal degeneration was stimulated either by manual axonal transection using a scalpel blade, or chemotoxic stimuli. After an appropriate experimental time period, the DRG cultures were fixed in 1% PFA plus sucrose and kept in the fridge prior to imaging. Bright-field images of DRG axons and cell bodies were collected using the 20× water immersion lens of a Phenix automated confocal microscope (PerkinElmer) and quantitation of axonal performed using in-house developed scripts (Acapella, PerkinElmer).

`Brc1c[nH]c2cnccc12` [Example 7] and `Ic1c[nH]c2cnccc12` [Example 4] cannot be ordered by IC50: less than 10 µM for the first, less than 10 µM for the second.

`Brc1csc2cnccc12` [Example 30] was tested, and the IC50 was 10 to 30 µM.
